Source: ChEMBL document CHEMBL3425406, “Design, Synthesis, and Evaluation of Tetrasubstituted Pyridines as Potent 5-HT2C Receptor Agonists” (ACS Med Chem Lett, 2015)

Tests used:
[1] = Lipophilicity, log D of the compound; type: physicochemical; settings: octanol/water
[2] = biological target: T1, 5-hydroxytryptamine receptor 2B (Homo sapiens, UniProt P41595); test: Agonist activity at human recombinant 5-HT2B receptor expressed in CHOK1 cells assessed as induction of Ca2+ mobilization after 1 hr by FLIPR assay; type: functional, cell-based, CHO-K1
T1 sequence (P41595 whole entry): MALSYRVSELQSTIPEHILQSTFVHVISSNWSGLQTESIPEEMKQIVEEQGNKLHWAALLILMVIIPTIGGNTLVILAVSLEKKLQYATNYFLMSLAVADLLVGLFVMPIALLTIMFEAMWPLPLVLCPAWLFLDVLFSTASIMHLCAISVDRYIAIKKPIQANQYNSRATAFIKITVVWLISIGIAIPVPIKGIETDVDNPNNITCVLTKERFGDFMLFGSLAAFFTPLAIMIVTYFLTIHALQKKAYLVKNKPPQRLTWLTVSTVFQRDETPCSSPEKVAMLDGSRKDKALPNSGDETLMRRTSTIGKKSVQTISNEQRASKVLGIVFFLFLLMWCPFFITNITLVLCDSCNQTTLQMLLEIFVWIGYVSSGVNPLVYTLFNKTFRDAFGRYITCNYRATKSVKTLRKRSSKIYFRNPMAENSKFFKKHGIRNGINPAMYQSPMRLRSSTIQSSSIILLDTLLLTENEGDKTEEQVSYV

[3] = biological target: T1, 5-hydroxytryptamine receptor 2B; test: Agonist activity at human recombinant 5-HT2B receptor expressed in CHOK1 cells assessed as induction of Ca2+ mobilization at 30 uM after 1 hr by FLIPR assay relative to 5-HT; type: functional, cell-based; settings: CHO-K1
[4] = Permeability across dog RRCK cells; type: ADME, cell-based, Canis lupus familiaris, MDCKII-LE; settings: MDCK, read-out: permeability
[5] = test system: MDR1; test: Apparent permeability across apical to basolateral side in MDCK cells expressing MDR1; type: ADME, cell-based, Canis lupus familiaris; settings: dog
[6] = test system: MDR1; test: Efflux ratio of apparent permeability across basolateral to apical over apical to basolateral side in MDCK cells expressing MDR1; type: ADME, cell-based, Canis lupus familiaris; settings: dog
[7] = biological target: T1, 5-hydroxytryptamine receptor 2B; test: Inhibition of Cy3B conjugated serotonin analogue binding to human recombinant 5-HT2B receptor expressed in CHOK1 cells after 60 mins by fluorescence polarization assay; type: cell-based; settings: CHO-K1

SMILES	logD [1]	EC50 [2] [nM]	Emax [3] [%]	Papp [4] [×10⁻⁶ cm/s]	Papp A→B [5] [×10⁻⁶ cm/s]	efflux ratio [6]	Kb [7] [nM]
c1ccc(Cc2cc3c(cn2)CCNCC3)cc1	0.5	27	53	18	3.9	1.5	
CCCNc1nc(Cc2ccccc2)cc2c1CCNCC2	1	27	38	4	1.5	3.5	
CNc1nc(Cc2ccccc2)cc2c1CCNCC2	0.4	1480	69	8	2.5	2.8	
CC(C)Nc1nc(Cc2ccccc2)cc2c1CCNCC2	1	33	32	12			
CCNc1nc(Cc2ccccc2)cc2c1CCNCC2	0.6	18	28	7	1.8	2.3	
CN(C)c1nc(Cc2ccccc2)cc2c1CCNCC2	0.6	30	38	8	2.1	2.2	
CC(C)CNc1nc(Cc2ccccc2)cc2c1CCNCC2	1.7						
c1ccc(CNc2nc(Cc3ccccc3)cc3c2CCNCC3)cc1	1.7			2	0.6	3.6	121
c1ccc(Cc2cc3c(c(NCC4CC4)n2)CCNCC3)cc1	1.2	22	51	2	0.8	6.1	
